According to PubChem BioAssay AID1259407 (Chemical Carcinogenesis Research Information System (CCRIS), 2018):
Calls of active or inactive are those of the source. The rule behind the calls is not given here.

Test system: CCRIS mutagenicity, Ames/micronucleus/aberration tests
Assay: CCRIS mutagenicity studies
[1] = Test System: MOUSE LYMPHOMA, Strain/Indicator: L5178Y (TK+/TK-), Metabolic Activation: NONE, Method: SUSPENSION/PLATE
[2] = Test System: MOUSE LYMPHOMA, Strain/Indicator: L5178Y (TK+/TK-), Metabolic Activation: RAT, LIVER, S-9, AROCLOR 1254, Method: SUSPENSION/PLATE
[3] = Test System: AMES SALMONELLA TYPHIMURIUM, Strain/Indicator: TA98, Metabolic Activation: NONE, Method: PREINCUBATION
[4] = Test System: AMES SALMONELLA TYPHIMURIUM, Strain/Indicator: TA100, Metabolic Activation: NONE, Method: PREINCUBATION
[5] = Test System: AMES SALMONELLA TYPHIMURIUM, Strain/Indicator: TA1535, Metabolic Activation: NONE, Method: PREINCUBATION

Q: Which results are given for CC(Br)(CBr)CBr?
A: mutagenic call (Test System: AMES SALMONELLA TYPHIMURIUM, Strain/Indicator: TA98, Metabolic Activation: NONE, Method: FLASK ASSAY): inactive; negative; mutagenic call (Test System: AMES SALMONELLA TYPHIMURIUM, Strain/Indicator: TA98, Metabolic Activation: RAT, LIVER, S-9, AROCLOR 1254, Method: FLASK ASSAY): inactive; negative; mutagenic call (Test System: AMES SALMONELLA TYPHIMURIUM, Strain/Indicator: TA100, Metabolic Activation: NONE, Method: FLASK ASSAY): inactive; negative; mutagenic call (Test System: AMES SALMONELLA TYPHIMURIUM, Strain/Indicator: TA100, Metabolic Activation: RAT, LIVER, S-9, AROCLOR 1254, Method: FLASK ASSAY): inactive; negative; mutagenic call (Test System: AMES SALMONELLA TYPHIMURIUM, Strain/Indicator: TA1535, Metabolic Activation: NONE, Method: FLASK ASSAY): inactive; negative; mutagenic call (Test System: AMES SALMONELLA TYPHIMURIUM, Strain/Indicator: TA1535, Metabolic Activation: RAT, LIVER, S-9, AROCLOR 1254, Method: FLASK ASSAY): inactive; negative; mutagenic call (Test System: AMES SALMONELLA TYPHIMURIUM, Strain/Indicator: TA1537, Metabolic Activation: NONE, Method: FLASK ASSAY): inactive; negative; mutagenic call (Test System: AMES SALMONELLA TYPHIMURIUM, Strain/Indicator: TA1537, Metabolic Activation: RAT, LIVER, S-9, AROCLOR 1254, Method: FLASK ASSAY): inactive; negative; mutagenic call (Test System: AMES SALMONELLA TYPHIMURIUM, Strain/Indicator: TA1538, Metabolic Activation: NONE, Method: FLASK ASSAY): inactive; negative; mutagenic call (Test System: AMES SALMONELLA TYPHIMURIUM, Strain/Indicator: TA1538, Metabolic Activation: RAT, LIVER, S-9, AROCLOR 1254, Method: FLASK ASSAY): inactive; negative; mutagenic call [1]: active; positive; mutagenic call [2]: active; positive

Q: What does the source list for C[Si](Cl)Cl?
A: mutagenic call (Test System: AMES SALMONELLA TYPHIMURIUM, Strain/Indicator: TA98, Metabolic Activation: HAMSTER, LIVER, S-9, AROCLOR 1254, Method: PREINCUBATION): inactive; negative; mutagenic call [3]: inactive; negative; mutagenic call (Test System: AMES SALMONELLA TYPHIMURIUM, Strain/Indicator: TA98, Metabolic Activation: RAT, LIVER, S-9, AROCLOR 1254, Method: PREINCUBATION): inactive; negative; mutagenic call (Test System: AMES SALMONELLA TYPHIMURIUM, Strain/Indicator: TA100, Metabolic Activation: HAMSTER, LIVER, S-9, AROCLOR 1254, Method: PREINCUBATION): inactive; negative; mutagenic call [4]: inactive; negative; mutagenic call (Test System: AMES SALMONELLA TYPHIMURIUM, Strain/Indicator: TA100, Metabolic Activation: RAT, LIVER, S-9, AROCLOR 1254, Method: PREINCUBATION): inactive; negative; mutagenic call (Test System: AMES SALMONELLA TYPHIMURIUM, Strain/Indicator: TA1535, Metabolic Activation: HAMSTER, LIVER, S-9, AROCLOR 1254, Method: PREINCUBATION): inactive; negative; mutagenic call [5]: inactive; negative; mutagenic call (Test System: AMES SALMONELLA TYPHIMURIUM, Strain/Indicator: TA1535, Metabolic Activation: RAT, LIVER, S-9, AROCLOR 1254, Method: PREINCUBATION): inactive; negative; mutagenic call (Test System: AMES SALMONELLA TYPHIMURIUM, Strain/Indicator: TA1537, Metabolic Activation: HAMSTER, LIVER, S-9, AROCLOR 1254, Method: PREINCUBATION): inactive; negative; mutagenic call (Test System: AMES SALMONELLA TYPHIMURIUM, Strain/Indicator: TA1537, Metabolic Activation: NONE, Method: PREINCUBATION): inactive; negative; mutagenic call (Test System: AMES SALMONELLA TYPHIMURIUM, Strain/Indicator: TA1537, Metabolic Activation: RAT, LIVER, S-9, AROCLOR 1254, Method: PREINCUBATION): inactive; negative; mutagenic call (Test System: AMES SALMONELLA TYPHIMURIUM, Strain/Indicator: TA1538, Metabolic Activation: HAMSTER, LIVER, S-9, AROCLOR 1254, Method: PREINCUBATION): inactive; negative; mutagenic call (Test System: AMES SALMONELLA TYPHIMURIUM, Strain/Indicator: TA1538, Metabolic Activation: NONE, Method: PREINCUBATION): inactive; negative; mutagenic call (Test System: AMES SALMONELLA TYPHIMURIUM, Strain/Indicator: TA1538, Metabolic Activation: RAT, LIVER, S-9, AROCLOR 1254, Method: PREINCUBATION): inactive; negative; mutagenic call [1]: inactive; negative. reevaluation of results: negative; mutagenic call [2]: inactive; negative. reevaluation of results: negative

Q: What does the source list for COC(=O)c1cc(-c2ccc(N)c(C(=O)OC)c2)ccc1N?
A: mutagenic call (Test System: AMES SALMONELLA TYPHIMURIUM, Strain/Indicator: TA98(1,8-DNP6), Metabolic Activation: NONE, Method: STANDARD PLATE): inactive; negative; mutagenic call (Test System: AMES SALMONELLA TYPHIMURIUM, Strain/Indicator: TA98(1,8-DNP6), Metabolic Activation: S-9, Method: STANDARD PLATE): active; positive; mutagenic call (Test System: AMES SALMONELLA TYPHIMURIUM, Strain/Indicator: TA98, Metabolic Activation: NONE, Method: STANDARD PLATE): inactive; negative; mutagenic call (Test System: AMES SALMONELLA TYPHIMURIUM, Strain/Indicator: TA98, Metabolic Activation: S-9, Method: STANDARD PLATE): active; positive; mutagenic call (Test System: AMES SALMONELLA TYPHIMURIUM, Strain/Indicator: TA100, Metabolic Activation: NONE, Method: STANDARD PLATE): inactive; negative; mutagenic call (Test System: AMES SALMONELLA TYPHIMURIUM, Strain/Indicator: TA100, Metabolic Activation: S-9, Method: STANDARD PLATE): inactive; negative

Q: How did the mutagenic call (Test System: AMES SALMONELLA TYPHIMURIUM, Strain/Indicator: TA97, Metabolic Activation: HAMSTER, LIVER, S-9, AROCLOR 1254 (10%), Method: PREINCUBATION) turn out when S=c1[nH]c2ccccc2[nH]1 was run?
A: inactive; negative

Q: And the mutagenic call (Test System: AMES SALMONELLA TYPHIMURIUM, Strain/Indicator: TA97, Metabolic Activation: HAMSTER, LIVER, S-9, AROCLOR 1254 (30%), Method: PREINCUBATION)?
A: inactive; negative

Q: What about the mutagenic call (Test System: AMES SALMONELLA TYPHIMURIUM, Strain/Indicator: TA97, Metabolic Activation: NONE, Method: PREINCUBATION) of the same molecule?
A: inactive; negative

Q: What about the mutagenic call (Test System: AMES SALMONELLA TYPHIMURIUM, Strain/Indicator: TA97, Metabolic Activation: RAT, LIVER, S-9, AROCLOR 1254 (10%), Method: PREINCUBATION) of the same molecule?
A: inactive; negative

Q: And the mutagenic call (Test System: AMES SALMONELLA TYPHIMURIUM, Strain/Indicator: TA97, Metabolic Activation: RAT, LIVER, S-9, AROCLOR 1254 (30%), Method: PREINCUBATION)?
A: inactive; negative

Q: And the mutagenic call (Test System: AMES SALMONELLA TYPHIMURIUM, Strain/Indicator: TA98, Metabolic Activation: HAMSTER, LIVER, S-9, AROCLOR 1254 (10%), Method: PREINCUBATION)?
A: inactive; negative

Q: What about the mutagenic call (Test System: AMES SALMONELLA TYPHIMURIUM, Strain/Indicator: TA98, Metabolic Activation: HAMSTER, LIVER, S-9, AROCLOR 1254 (30%), Method: PREINCUBATION) of the same molecule?
A: inactive; negative

Q: And the mutagenic call [3]?
A: inactive; negative

Q: What about the mutagenic call (Test System: AMES SALMONELLA TYPHIMURIUM, Strain/Indicator: TA98, Metabolic Activation: RAT, LIVER, S-9, AROCLOR 1254 (10%), Method: PREINCUBATION) of the same molecule?
A: inactive; negative

Q: What about the mutagenic call (Test System: AMES SALMONELLA TYPHIMURIUM, Strain/Indicator: TA98, Metabolic Activation: RAT, LIVER, S-9, AROCLOR 1254 (30%), Method: PREINCUBATION) of the same molecule?
A: inactive; negative

Q: And the mutagenic call (Test System: AMES SALMONELLA TYPHIMURIUM, Strain/Indicator: TA100, Metabolic Activation: HAMSTER, LIVER, S-9, AROCLOR 1254 (10%), Method: PREINCUBATION)?
A: inactive; negative

Q: And the mutagenic call (Test System: AMES SALMONELLA TYPHIMURIUM, Strain/Indicator: TA100, Metabolic Activation: HAMSTER, LIVER, S-9, AROCLOR 1254 (30%), Method: PREINCUBATION)?
A: inactive; negative

Q: And the mutagenic call [4]?
A: inactive; negative

Q: And the mutagenic call (Test System: AMES SALMONELLA TYPHIMURIUM, Strain/Indicator: TA100, Metabolic Activation: RAT, LIVER, S-9, AROCLOR 1254 (10%), Method: PREINCUBATION)?
A: inactive; negative

Q: And the mutagenic call (Test System: AMES SALMONELLA TYPHIMURIUM, Strain/Indicator: TA100, Metabolic Activation: RAT, LIVER, S-9, AROCLOR 1254 (30%), Method: PREINCUBATION)?
A: inactive; negative

Q: What about the mutagenic call (Test System: AMES SALMONELLA TYPHIMURIUM, Strain/Indicator: TA1535, Metabolic Activation: HAMSTER, LIVER, S-9, AROCLOR 1254 (10 OR 30%), Method: PREINCUBATION) of the same molecule?
A: inactive; negative

Q: What about the mutagenic call [5] of the same molecule?
A: inactive; negative

Q: And the mutagenic call (Test System: AMES SALMONELLA TYPHIMURIUM, Strain/Indicator: TA1535, Metabolic Activation: RAT, LIVER, S-9, AROCLOR 1254 (10 OR 30%), Method: PREINCUBATION)?
A: inactive; negative

Q: COc1cc(N=Nc2ncc([N+](=O)[O-])s2)c(NC(C)=O)cc1N(CCOC(=O)OCC(C)C)CCOC(=O)OCC(C)C was tested. Which mutagenic call (End Point: IN VITRO CHROMOSOMAL ABERRATIONS, Test System: CHL CELLS, Metabolic Activation: RAT, LIVER, S-9, SODIUM PHENOBARBITAL AND 5,6-BENZOFLAVONE) did it give?
A: active; positive (ploidy changes)
